Data on 4 molecules can be found in publication PMC11327230, “Scalability study on [^133La]LaCl3 production with a focus on potential clinical applications” (EJNMMI Radiopharmacy and Chemistry, 2024).

The conditions of data set [1]: 200 MBq; ref Afshar-Oromieh et al. [2016]; cited from earlier work.
A short description of data set [2]: Stability of ^133La-PSMA radioconjugates in human serum, by radio-TLC. Format: in vitro ADME. The following applies: after 24 h in human serum, radio-TLC (Fig. 11).
Assay in data set [3]: as above
Format: in vitro ADME. The following applies: for stability in serum: ^133La-radioconjugate, up to / after 24 h; for HS stability 1 h / HS stability 4 h / HS stability 24 h: human serum/PBS pH 7, 37 °C, tested thrice. On the procedure: Apparent molar activity (AMA) was quantified by titration with the macropa chelator in combination with radio-TLC. 3–10 µL [^133La]LaCl3 (4–7 MBq, approximately 10 MBq at EOB) were added to a buffered solution (ammonium acetate 200 mM, pH 6, total volume 100 µL) containing different chelator concentrations: 0.20 µM, 0.40 µM, 0.80 µM and 1.60 µM. These solutions were mixed at 500 rpm for 15 min at room temperature. The formed [^133La]La-macropa complex was analyzed using silica gel coated aluminum plates and developed with 50 mM EDTA as eluent. While the free lanthanum runs to the front, the complex remains at the start.
To assess the serum stability of both radiolabeled compounds, 75 µL of the ^133La-PSMA radioconjugates, accounting for ca. 50 MBq ^133La, were added to 75 µL of PBS buffer pH 7 and 150 µL of human serum and mixed at 500 rpm for 24 h at 37 °C. Silica gel plates were spotted after 1 h, 4 h and 24 h to evaluate the evolution of the complex stability. Each ^133La-PSMA radioligand and its molar activity was tested thrice.

On to `O=C([O-])CN(CCN(CC(=O)[O-])Cc1cc(CCC(=O)NCCCCCC(=O)NCCCC[C@H](NC(=O)N[C@@H](CCC(=O)O)C(=O)O)C(=O)O)ccc1[O-])Cc1cc(CCC(=O)O)ccc1[O-].[68Ga+3].[OH3+]` [[^68Ga]Ga-PSMA-11], for which the effective dose in data set [1] was 4.7 mSv.
`[133La+3].[Cl-].[Cl-].[Cl-]` [[^133La]LaCl3]: the “free [^133Ba]Ba^2+ as share of the total radioactivity” value in data set [2] is listed as 1.1%.
For the molecule `O=C(O)CCC(NC(=O)NC(CCCCNC(=O)C(Cc1ccc2ccccc2c1)NC(=O)C1CCC(CNC(=O)CCCCn2cc(COc3cc(CN4CCOCCOCCN(Cc5cccc(C(=O)O)n5)CCOCCOCC4)nc(C(=O)O)c3)nn2)CC1)C(=O)O)C(=O)O` (centres unmarked) [[^133La]La-mcp-M-PSMA], the stability in serum is given as greater than 99% in data set [3] (molar activity not stated in the sentence) and greater than 99.20 ± 0.08% in data set [3] (molar activity not stated in the sentence, listed as mcp-M-PSMA). In addition, the “HS stability 1 h” value stood at 100 ± 0% in data set [3] (molar activity 40 GBq/µmol) and 99.80 ± 0.01% in data set [3] (molar activity 80 GBq/µmol). The “HS stability 4 h” value amounted to 100 ± 0% in data set [3] (molar activity 40 GBq/µmol) and 99.83 ± 0.08% in data set [3] (molar activity 80 GBq/µmol). Moreover, the “HS stability 24 h” value in data set [3] (molar activity 40 GBq/µmol) stood at 99.57 ± 0.25%; in data set [3] (molar activity 80 GBq/µmol), 99.20 ± 0.08%.
On to `O=C(O)CC[C@H](NC(=O)N[C@@H](CCCCNC(=O)[C@H](Cc1ccc2ccccc2c1)NC(=O)[C@H]1CC[C@H](CNC(=O)CN2CCN(CC(=O)O)CCN(CC(=O)O)CCN(CC(=O)O)CC2)CC1)C(=O)O)C(=O)O` [[^133La]La-PSMA-617], for which the stability in serum in data set [3] (molar activity not given) is given as greater than 98.5 ± 0.3%. In addition, in data set [3] (molar activity 40 GBq/µmol), the “HS stability 1 h” value is given as 99.37 ± 0.12%, the “HS stability 4 h” value turned out to be 99.40 ± 0.01% and the “HS stability 24 h” value came to 97.37 ± 0.17%. In addition, in data set [3] (molar activity 80 GBq/µmol), the “HS stability 1 h” value came to 99.57 ± 0.12%, the “HS stability 4 h” value came to 99.60 ± 0.08% and the “HS stability 24 h” value came to 98.5 ± 0.3%.
